Source: BigSolDB 2.1

`O=C(O)c1ccccc1O` showed a solubility (mole fraction) (in acetic acid, 298.15 K) of 0.0531, a solubility (mole fraction) (in acetic acid, 303.15 K) of 0.0617 and a solubility (mole fraction) (in acetic acid, 308.15 K) of 0.0709. It also gave a solubility (mole fraction) (in acetic acid, 313.15 K) of 0.0785, a solubility (mole fraction) (in acetic acid, 318.15 K) of 0.0903 and a solubility (mole fraction) (in acetone, 298.15 K) of 0.175. It also gave a solubility (mole fraction) (in acetone, 303.15 K) of 0.196, a solubility (mole fraction) (in acetone, 308.15 K) of 0.203 and a solubility (mole fraction) (in acetone, 313.15 K) of 0.218. The solubility (mole fraction) (in acetone, 318.15 K) was 0.231, the solubility (mole fraction) (in ethyl acetate, 298.15 K) was 0.13 and the solubility (mole fraction) (in ethyl acetate, 303.15 K) was 0.14. The solubility (mole fraction) (in ethyl acetate, 308.15 K) was 0.154, the solubility (mole fraction) (in ethyl acetate, 313.15 K) was 0.165 and the solubility (mole fraction) (in ethyl acetate, 318.15 K) was 0.179. For the same compound, the solubility (mole fraction) (in methanol, 298.15 K) was 0.123, the solubility (mole fraction) (in methanol, 303.15 K) was 0.137 and the solubility (mole fraction) (in methanol, 308.15 K) was 0.15. It also gave a solubility (mole fraction) (in methanol, 313.15 K) of 0.163 and a solubility (mole fraction) (in methanol, 318.15 K) of 0.172.
`OC/C=C/c1ccccc1` showed a solubility (mole fraction) (in acetone, 253.15 K) of 0.28, a solubility (mole fraction) (in acetone, 258.15 K) of 0.322 and a solubility (mole fraction) (in acetone, 263.15 K) of 0.363. It also gave a solubility (mole fraction) (in acetone, 268.15 K) of 0.414, a solubility (mole fraction) (in acetone, 273.15 K) of 0.47 and a solubility (mole fraction) (in acetone, 278.15 K) of 0.526. It also gave a solubility (mole fraction) (in acetone, 283.15 K) of 0.579, a solubility (mole fraction) (in acetone, 288.15 K) of 0.625 and a solubility (mole fraction) (in acetone, 293.15 K) of 0.674. It also gave a solubility (mole fraction) (in ethanol, 253.15 K) of 0.22, a solubility (mole fraction) (in ethanol, 258.15 K) of 0.256 and a solubility (mole fraction) (in ethanol, 263.15 K) of 0.298. For the same compound, the solubility (mole fraction) (in ethanol, 268.15 K) was 0.342, the solubility (mole fraction) (in ethanol, 273.15 K) was 0.404 and the solubility (mole fraction) (in ethanol, 278.15 K) was 0.456. The solubility (mole fraction) (in ethanol, 283.15 K) was 0.52, the solubility (mole fraction) (in ethanol, 288.15 K) was 0.59 and the solubility (mole fraction) (in ethanol, 293.15 K) was 0.652. It also gave a solubility (mole fraction) (in ethyl acetate, 253.15 K) of 0.208, a solubility (mole fraction) (in ethyl acetate, 258.15 K) of 0.243 and a solubility (mole fraction) (in ethyl acetate, 263.15 K) of 0.29. It also gave a solubility (mole fraction) (in ethyl acetate, 268.15 K) of 0.351, a solubility (mole fraction) (in ethyl acetate, 273.15 K) of 0.416 and a solubility (mole fraction) (in ethyl acetate, 278.15 K) of 0.486. For the same compound, the solubility (mole fraction) (in ethyl acetate, 283.15 K) was 0.547, the solubility (mole fraction) (in ethyl acetate, 288.15 K) was 0.61 and the solubility (mole fraction) (in ethyl acetate, 293.15 K) was 0.659. The solubility (mole fraction) (in isobutanol, 253.15 K) was 0.072, the solubility (mole fraction) (in isobutanol, 258.15 K) was 0.105 and the solubility (mole fraction) (in isobutanol, 263.15 K) was 0.165. The solubility (mole fraction) (in isobutanol, 268.15 K) was 0.217, the solubility (mole fraction) (in isobutanol, 273.15 K) was 0.287 and the solubility (mole fraction) (in isobutanol, 278.15 K) was 0.366. The solubility (mole fraction) (in isobutanol, 283.15 K) was 0.431, the solubility (mole fraction) (in isobutanol, 288.15 K) was 0.498 and the solubility (mole fraction) (in isobutanol, 293.15 K) was 0.576. It also gave a solubility (mole fraction) (in isopropanol, 253.15 K) of 0.195, a solubility (mole fraction) (in isopropanol, 258.15 K) of 0.242 and a solubility (mole fraction) (in isopropanol, 263.15 K) of 0.288. For the same compound, the solubility (mole fraction) (in isopropanol, 268.15 K) was 0.33, the solubility (mole fraction) (in isopropanol, 273.15 K) was 0.394 and the solubility (mole fraction) (in isopropanol, 278.15 K) was 0.446. It also gave a solubility (mole fraction) (in isopropanol, 283.15 K) of 0.512, a solubility (mole fraction) (in isopropanol, 288.15 K) of 0.582 and a solubility (mole fraction) (in isopropanol, 293.15 K) of 0.649. It also gave a solubility (mole fraction) (in methanol, 253.15 K) of 0.222, a solubility (mole fraction) (in methanol, 258.15 K) of 0.24 and a solubility (mole fraction) (in methanol, 263.15 K) of 0.269. For the same compound, the solubility (mole fraction) (in methanol, 268.15 K) was 0.307, the solubility (mole fraction) (in methanol, 273.15 K) was 0.351 and the solubility (mole fraction) (in methanol, 278.15 K) was 0.401. It also gave a solubility (mole fraction) (in methanol, 283.15 K) of 0.466, a solubility (mole fraction) (in methanol, 288.15 K) of 0.536 and a solubility (mole fraction) (in methanol, 293.15 K) of 0.61. For the same compound, the solubility (mole fraction) (in methyl acetate, 253.15 K) was 0.172, the solubility (mole fraction) (in methyl acetate, 258.15 K) was 0.225 and the solubility (mole fraction) (in methyl acetate, 263.15 K) was 0.27. The solubility (mole fraction) (in methyl acetate, 268.15 K) was 0.326, the solubility (mole fraction) (in methyl acetate, 273.15 K) was 0.392 and the solubility (mole fraction) (in methyl acetate, 278.15 K) was 0.452. The solubility (mole fraction) (in methyl acetate, 283.15 K) was 0.523, the solubility (mole fraction) (in methyl acetate, 288.15 K) was 0.591 and the solubility (mole fraction) (in methyl acetate, 293.15 K) was 0.646. The solubility (mole fraction) (in n-butanol, 253.15 K) was 0.125, the solubility (mole fraction) (in n-butanol, 258.15 K) was 0.162 and the solubility (mole fraction) (in n-butanol, 263.15 K) was 0.214. The solubility (mole fraction) (in n-butanol, 268.15 K) was 0.269, the solubility (mole fraction) (in n-butanol, 273.15 K) was 0.342 and the solubility (mole fraction) (in n-butanol, 278.15 K) was 0.412. For the same compound, the solubility (mole fraction) (in n-butanol, 283.15 K) was 0.479, the solubility (mole fraction) (in n-butanol, 288.15 K) was 0.553 and the solubility (mole fraction) (in n-butanol, 293.15 K) was 0.608. The solubility (mole fraction) (in n-hexane, 253.15 K) was 0.00446, the solubility (mole fraction) (in n-hexane, 258.15 K) was 0.00664 and the solubility (mole fraction) (in n-hexane, 263.15 K) was 0.0104. It also gave a solubility (mole fraction) (in n-hexane, 268.15 K) of 0.0143, a solubility (mole fraction) (in n-hexane, 273.15 K) of 0.0194 and a solubility (mole fraction) (in n-hexane, 278.15 K) of 0.0248. The solubility (mole fraction) (in n-hexane, 283.15 K) was 0.0294, the solubility (mole fraction) (in n-hexane, 288.15 K) was 0.0352 and the solubility (mole fraction) (in n-hexane, 293.15 K) was 0.0418. It also gave a solubility (mole fraction) (in n-propanol, 253.15 K) of 0.174, a solubility (mole fraction) (in n-propanol, 258.15 K) of 0.213 and a solubility (mole fraction) (in n-propanol, 263.15 K) of 0.266. The solubility (mole fraction) (in n-propanol, 268.15 K) was 0.313, the solubility (mole fraction) (in n-propanol, 273.15 K) was 0.373 and the solubility (mole fraction) (in n-propanol, 278.15 K) was 0.433. For the same compound, the solubility (mole fraction) (in n-propanol, 283.15 K) was 0.496, the solubility (mole fraction) (in n-propanol, 288.15 K) was 0.567 and the solubility (mole fraction) (in n-propanol, 293.15 K) was 0.634. For the same compound, the solubility (mole fraction) (in sec-butanol, 253.15 K) was 0.089, the solubility (mole fraction) (in sec-butanol, 258.15 K) was 0.142 and the solubility (mole fraction) (in sec-butanol, 263.15 K) was 0.191. For the same compound, the solubility (mole fraction) (in sec-butanol, 268.15 K) was 0.255, the solubility (mole fraction) (in sec-butanol, 273.15 K) was 0.321 and the solubility (mole fraction) (in sec-butanol, 278.15 K) was 0.395. The solubility (mole fraction) (in sec-butanol, 283.15 K) was 0.459, the solubility (mole fraction) (in sec-butanol, 288.15 K) was 0.53 and the solubility (mole fraction) (in sec-butanol, 293.15 K) was 0.592.
